# Experimental data: article PMC4089486, “Structural and biochemical analyses of alanine racemase from the multidrug-resistant Clostridium difficile strain 630” (Acta Crystallographica Section D: Biological Crystallography, 2014)
# Assays:
# [1] = molecular target: T1, CdAlr (C. difficile alanine racemase; CdAlrWT) (Clostridioides difficile, UniProt Q180W0); test: X-ray co-crystal structure, […] A; format: binding; conditions: covalent; adduct with PLP (DCS) in the active site; 100 mM cycloserine
# T1 construct: gene alr2; monomer 43306 Da, homodimer; WT preparation partly cleaved at position 271 (fragments 1-271 and 272-382)
# T1 sequence (Q180W0 entry or part of it): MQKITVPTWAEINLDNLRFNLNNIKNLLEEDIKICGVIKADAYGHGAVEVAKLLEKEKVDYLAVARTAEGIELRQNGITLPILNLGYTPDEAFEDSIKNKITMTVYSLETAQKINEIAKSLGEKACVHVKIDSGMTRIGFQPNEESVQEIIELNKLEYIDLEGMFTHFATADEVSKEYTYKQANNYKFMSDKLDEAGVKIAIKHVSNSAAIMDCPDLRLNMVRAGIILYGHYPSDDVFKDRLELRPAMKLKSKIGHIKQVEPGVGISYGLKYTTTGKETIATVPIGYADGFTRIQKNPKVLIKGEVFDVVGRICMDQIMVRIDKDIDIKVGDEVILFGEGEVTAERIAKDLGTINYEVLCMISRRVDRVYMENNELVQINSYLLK
# [2] = molecular target: T1, CdAlr (C. difficile alanine racemase; CdAlrWT); test: X-ray crystal structure, […] A; format: binding; conditions: covalent; internal aldimine with Lys39
Compound,"X-ray co-crystal structure, 2.26 A [1]","X-ray crystal structure, 2.10 A [2]"
N[C@@H]1CONC1=O [cycloserine],"In the CdAlrcycloserine structure, cycloserine forms a covalent adduct with PLP",
Cc1ncc(COP(=O)(O)O)c(C=O)c1O [PLP],,Two structures (CdAlrK271T and CdAlrPLP) contain the cofactor PLP
